Source: paper PMC7746742, “The novel rexinoid MSU-42011 is effective for the treatment of preclinical Kras-driven lung cancer” (Scientific Reports, 2020)
Like-named read-outs stand apart in the source and are kept apart here.

Legend:
SREBP [1] = experiment: SREBP mRNA expression assay in HepG2 cells (RT-PCR); format: cell-based, human; conditions: for fold induction at 0.3 µM: Homo sapiens, read-out: SREBP activation Fold induction vs. Control; for fold induction at 0.3 µM / SREBP activation Fold induction vs. Control: HepG2 cells, 300 nM rexinoids, 8 h, SREBP mRNA by RT-PCR, mean ± SD of 3 experiments; for SREBP mRNA expression compared to the vehicle control: LG100268 300 nM, T0901317 500 nM, alone or combined; for SREBP mRNA expression compared to the vehicle control / Effect on the induction of SREBP mRNA by LG100268: HX 531 100 nM; for Effect on the induction of SREBP mRNA by LG100268: combined with LG100268 300 nM, GSK 2033 500 nM
Experimental: The goals of our structure–activity relationship (SAR) studies were to explore and discover new scaffolds that not only bind to RXR but also are able to independently modulate both iNOS and SREBP activity in accordance with a previously described screening paradigm. To characterize the effect of the novel rexinoids on SREBP elevation in vitro, HepG2 cells were treated with 300 nM rexinoids for 8 h and SREBP mRNA levels were measured by RT-PCR. SREBP expression ranged from no change to a 4.6-fold induction compared to the vehicle control when treated with the novel compounds. […] Analogs MSU- 41402, 41582, 41407, 41566, 41844, 41845, 42011, and 42166 induced an SREPB mRNA fold expression change of 1–1.5 normalized to a vehicle control, while bexarotene induced an mRNA fold expression change of > 2 (Table 1).
(§1) HepG2 were plated in 6-well plates (1 × 10^6 cells/well) and, after allowing the cells to attach overnight, were treated with 300 nM rexinoids and/or varying concentrations of T0901317 (TOCRIS # 2373), GSK 2033 (TOCRIS # 5694), HX 531 (TOCRIS # 3912) for 8 h. Total RNA was isolated with TRIzol (Invitrogen, Carlsbad, CA) and 2 µg RNA was used to synthesize cDNA using the SuperScript III reverse transcriptase kit (Invitrogen, Carlsbad, CA). Primers (IDT) for SREBP (F: 5′-GCCGGTTGATAGGCAGCTT-3′; R: 5′-GGTGAGTGGCGGAACCATT-3′) and GAPDH (F: 5′-[…]-3′; R: 5′-[…]-3′), the SYBR Green Supermix (Bio-rad Laboratories, Hercules, CA) and the QuantStudio 7 Flex Real-Time PCR system (95 °C for 20 s followed by 40 cycles of 95 °C for 15 s and 60 °C for 1 min were used to detect mRNA expression. Relative SREBP/GAPDH gene expression was calculated by the delta-delta Ct method. To evaluate protein expression by western blotting, HepG2 cells were plated as above and treated with 300 nM of rexinoids for 24 h. Cells were harvested and lysed in RIPA buffer (1 M Tris–Cl, 5 M NaCl, pH 7.4, 0.5 M EDTA, 25 mM sodium deoxycholate, 1% triton-X, 0.1% SDS, 0.0125% aprotinin) with protease inhibitors (1% PMSF/0.5% apoprotein/0.1%leupeptin). Protein concentration was measured using a BCA assay (Sigma-Aldrich). Proteins (10 µg/well) were separated in 10% SDS-PAGE gels and transferred to nitrocellulose membranes. Membranes were incubated with SREBP (Active Motif; 1:1000) and GAPDH (Santa Cruz Biotechnology; 1:8000) primary antibodies followed by anti-rabbit secondary antibodies conjugated to horseradish peroxidase (Cell Signaling). Signal was detected using the ECL Western Blotting Substrate (GE Healthcare), and protein levels quantified using ImageJ.

iNOS = iNOS inhibition assay (LPS-induced NO production, Griess reaction); format: cell-based, murine; conditions: RAW264.7 cells, 0–1000 nM rexinoids, LPS 1 ng/ml 24 h, NO by Griess assay, mean ± SE of 3 experiments, read-out: iNOS suppression IC50
Experimental: To evaluate the anti-inflammatory effects of the novel rexinoids, we utilized the iNOS suppression assay. Inhibition of iNOS in vitro directly correlates with efficacy in our preclinical model of Kras-driven lung cancer. RAW264.7 macrophage-like cells were treated with 0–1 μM rexinoids and stimulated with 1 ng/mL lipopolysaccharide for 24 h, and then NO was measured in the media.
RAW264.7 cells were plated in 96-well plates (20,000 cells/well). After overnight attachment, cells were treated with twofold serial dilutions (0–1000 nM) of rexinoids. After a 20 min incubation at 37 °C, cells were stimulated with 1 ng/mL LPS for 24 h. NO production was measured in culture medium using the Griess reaction. IC50 values were calculated using GraphPad Prism 8.1.2 software for Windows using a log([nM drug concentration]) vs. response curve fit.

SREBP [2] = experiment: SREBP protein expression in HepG2 cells (western blot); format: cell-based, human; conditions: 300 nM rexinoids, 24 h
Experimental: Although we have confirmed that the iNOS assay correlates with in vivo efficacy, few investigators have used the induction of SREBP in vitro as a biomarker to predict the ability of novel rexinoids to increase triglycerides in vivo. Elevated triglycerides are a side-effect found with many RXR agonists in preclinical models and by bexarotene in humans[13],[14]. […] HepG2 human liver cells were used, as the liver is the major organ that regulates lipid homeostasis.
as §1

[3] = Plasma triglycerides in MMTV-neu mice fed rexinoids; format: in vivo; conditions: MMTV-neu mice fed rexinoids for 10 days, n=5-6 mice/group
Experimental: fold expression triglyceride
Supplemental Fig 1. Correlation of SREPB mRNA expression and triglyceride levels. HepG2 human liver cells were treated with 300 nM of rexinoids for 8 hr,and lysates analyzed by RT-PCR. Triglycerides in plasma from MMTV-neu mice fed rexinoids for10 days were measured using a commercial kit(Abcam). *, p <0.01 vs control; **, p<0.05 vs bex and LG268; n=5-6 mice/group.

A549 lung cancer cells = experiment: MTT proliferation assay; format: cell-based, human; conditions: 0–1 μM rexinoids, 72 hr
Experimental: were treated with 0-1 μM rexinoids for 72 hr. Proliferation was measured using the MTT assay.
MTT Assay. A549 cells were plated in 96-well plates (2,000 cells/well). After overnight attachment, cells were treated with 2 fold dilutions (0-1000 nM rexinoids) for 72 hr. 50 μL 3-(4,5-dimethylthiazol-2-yl)-2,5-diphenyltetrazolium bromide (MTT; Sigma M2128) was added to each well, and cells were incubated at 37 °C for 4 hr. Media was removed and cells were lysed with developing solution (0.04 M HCl in isopropanol). Plates were read at 550 nm.
(also on this page, place not known: 110A549 Cell Proliferation (% DMSO Control) 37°C)

Row | SMILES | fold induction at 0.3 µM (SREBP [1]; HepG2, 8 h) | IC50 (iNOS; Mus musculus) | other results
1 | CCN(c1ccc(C(=O)O)cc1)c1cc(C(C)C)c(OCC(C)C)cc1C [MSU-41845] | 1.45 ± 0.2 | 338 ± 31 nM | 
2 | CC(/C=C/[C@@H]1C[C@]1(C)c1ccc2c(c1)C(C)(C)CCC2(C)C)=C\C(=O)O [IRX194204] |  |  | SREBP protein levels compared to DMSO control (SREBP [2]): increased SREBP protein levels
3 | C=C(c1ccc(C(=O)O)cc1)c1cc(C(C)C)c(OC(C)C)cc1C [MSU-41407] | 1.08 ± 0.1 | 334 ± 17 nM | 
4 | CC(C)(C)c1cc(N(CC2CC2)c2ccc(C(=O)O)cn2)cc(C(C)(C)C)c1 [MSU-41843] | 2.48 ± 1.8 | 274 ± 33 nM | 
5 | C/C(=C/C=C/C(C)=C/C(=O)O)c1cc(C(C)(C)C)cc(C(C)(C)C)c1OCC(F)F [LG101506] |  |  | SREBP activation Fold induction vs. Control (SREBP [1]): 1.06 ± 0.3 fold; SREBP protein levels compared to DMSO control (SREBP [2]): did not; Plasma triglyceride levels in mice [3]: 1.21 ± 0.1 nmol/µL
6 | O=S(=O)(c1ccccc1)N(CC(F)(F)F)c1ccc(C(O)(C(F)(F)F)C(F)(F)F)cc1 [T0901317] |  |  | SREBP mRNA expression compared to the vehicle control (SREBP [1]; HepG2, 8 h): 2.5 fold
7 | CN1c2ccc([N+](=O)[O-])cc2N=C(c2ccc(C(=O)O)cc2)c2cc3c(cc21)C(C)(C)CCC3(C)C [HX 531] |  |  | SREBP mRNA expression compared to the vehicle control (SREBP [1]; HepG2, 8 h): did not alter SREBP mRNA expression; Effect on the induction of SREBP mRNA by LG100268 (SREBP [1]; HepG2, 8 h): reversed the induction of SREBP by LG100268
8 | C=C(c1ccc(C(=O)O)cc1)c1ccc(OCC(C)C)c(C(C)C)c1 [MSU-41405] | 1.87 ± 0.3 | 267 ± 32 nM | 
9 | C=C(c1ccc(C(=O)O)cc1)c1cc(C(C)(C)C)cc(C(C)(C)C)c1 [MSU-41566] | 1.12 ± 0.5 | 239 ± 53 nM | 
10 | CC(C)(C)c1cc(-n2c(C(F)(F)F)nc3cc(C(=O)O)ccc32)cc(C(C)(C)C)c1 [MSU-41567] | 1.58 ± 0.2 | 271 ± 92 nM | 
11 | CCN(c1ccc(C(=O)O)cc1)c1cc(C(C)(C)C)cc(C(C)(C)C)c1 [MSU-41402] | 1.37 ± 0.3 | 343 ± 62 nM | 
12 | C=C(c1ccc(C(=O)O)cc1)c1cc(C(C)C)c(OCC(C)C)cc1C [MSU-41406] | 1.67 ± 0.2 | 252 ± 55 nM | 
13 | C=C(c1ccc(C(=O)O)cc1)c1cc2c(cc1C)CCCC2(C)C [MSU-41404] | 3.07 ± 0.5 | 340 ± 25 nM | 
14 | C=C(c1ccc(C(=O)O)cc1)c1cc(C(C)(C)C)ccc1OCC [MSU-41403] | 2.68 ± 0.2 | 331 ± 45 nM | 
15 | CCN(c1cc(C(F)(F)F)cc(C(F)(F)F)c1)c1ccc(C(=O)O)cn1 [MSU-41844] | 0.96 ± 0.5 | 389 ± 53 nM | 
16 | CCN(c1cc(C(C)(C)C)cc(C(C)(C)C)c1)c1ccc(C(=O)O)cn1 [MSU-41564] | 2.62 ± 0.7 | 248 ± 60 nM | 
17 | CCN(c1cc(C(C)(C)C)cc(C(C)(C)C)c1)c1ncc(C(=O)O)cn1 [MSU-41582] | 1.38 ± 0.4 | 295 ± 54 nM | 
18 | Cc1cc2c(cc1C1(c3ccc(C(=O)O)cn3)CC1)C(C)(C)CCC2(C)C [LG100268] |  |  | SREBP mRNA expression compared to the vehicle control (SREBP [1]; HepG2, 8 h): 2.5 fold; SREBP activation Fold induction vs. Control (SREBP [1]): 3.06 ± 0.7 fold; Growth / proliferation of A549 lung cancer cells (A549 lung cancer cells): do not inhibit proliferation; IC50 (iNOS): 83 ± 14 nM; SREBP protein levels compared to DMSO control (SREBP [2]): increased SREBP protein levels; Plasma triglyceride levels in mice [3]: 3.42 ± 0.4 nmol/µL
19 | CCN(c1ccc(C(=O)O)cn1)c1cc(C(C)(C)C)ccc1C [MSU-41583] | 1.59 ± 0.5 | 290 ± 61 nM | 
20 | CCN(c1ccc(C(=O)O)cc1)c1cc(C(C)(C)C)c(OC)c(C(C)(C)C)c1 [MSU-41846] | 1.63 ± 0.3 | 347 ± 31 nM | 
21 | C=C(c1ccc(C(=O)O)cc1)c1cc(C(C)C)c(OCC)cc1C [MSU-41408] | 2.55 ± 0.7 | 300 ± 79 nM | 
22 | Cc1cc(C)c(S(=O)(=O)N(Cc2ccc(-c3cccc(S(C)(=O)=O)c3)cc2)Cc2ccc(C(F)(F)F)o2)c(C)c1 [GSK 2033] |  |  | SREBP mRNA expression lowered by (SREBP [1]; HepG2, 8 h, GSK 2033 500 nM alone): ~ 50%; Effect on the induction of SREBP mRNA by LG100268 (SREBP [1]; HepG2, 8 h): partially reversed the induction of SREBP by LG100268
23 | CCOc1c(N(CC)c2ccc(C(=O)O)cc2)cc(C(C)(C)C)cc1C(C)(C)C [MSU-41565] | 1.59 ± 0.2 | 366 ± 49 nM | 
